The record followed here is ChEMBL document CHEMBL1201862, “PubChem BioAssay data set” (2004).

Among the test systems are 786-0; A498; ACHN; CAKI-1; HCT-116; HCT-15; HOP-62; IGROV-1; K562; KM-20L2; KM12; NCI-H460; OVCAR-5; RPMI-8226; SN12C; SNB-78; TK-10; SK-MEL-5.
Common to all, as to experiment: NCI anticancer screen, dose series, 48 h

Structures are written as SMILES.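 Values below derive from 48-hour exposures of cells grown in 96-well plates, with endpoints linearly interpolated between the two concentrations bracketing the appropriate inhibition level. Here, GI50 denotes the concentration required for 50% inhibition of growth.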 Activity calls are given as the source filed them. Rule as the data show it: active = GI50 up to about 1.1 µM and inactive = higher.

`N=c1oc2c(O)c(O)ccc2cc1C(N)=O`: the GI50 is 12 µM (inactive) in the test with 786-0; > 100 µM (inactive) with A498; > 100 µM (inactive) in the test with ACHN; > 100 µM (inactive) with CAKI-1; 51.1 µM (inactive) in the test on HCT-116; more than 100 µM with HCT-15. In addition, the GI50 is > 100 µM (inactive) in the test with HOP-62; > 100 µM (inactive) in the test with IGROV-1; 17.7 µM (inactive) with K562; > 100 µM (inactive) in the test on KM-20L2; > 100 µM (inactive) with KM12; > 100 µM (inactive) in the test on NCI-H460. Also, the GI50 was > 100 µM (inactive) in the test with OVCAR-5; 32.1 µM (inactive) in the test with RPMI-8226; > 100 µM (inactive) with SN12C; > 100 µM (inactive) in the test on SNB-78; > 100 µM (inactive) in the test on TK-10.
For `CN1C(=O)c2cccc3c([N+](=O)[O-])ccc(c23)C1=O`, the GI50 with 786-0 is 8.85 µM (inactive); in the test with A498 it was 2.65 µM (inactive); in the test with ACHN, 10.1 µM (inactive); in the test on CAKI-1 it was 2.45 µM (inactive); in the test on HCT-116, 6.52 µM (inactive); in the test with HCT-15 it was 2.84 µM. The GI50 was 12.1 µM (inactive) in the test with HOP-62; 3.49 µM (inactive) with IGROV-1; 4.1 µM (inactive) in the test with K562; 5.7 µM (inactive) in the test on KM-20L2; 4.94 µM (inactive) in the test with KM12; 2.56 µM (inactive) in the test with NCI-H460. Moreover, the GI50 was 3.5 µM (inactive) in the test on OVCAR-5; 18.3 µM (inactive) in the test with SK-MEL-5; 12.4 µM (inactive) in the test with SN12C; 14 µM (inactive) in the test with SNB-78; 3.86 µM (inactive) in the test on TK-10.
On to `O=C(O)/C=C/n1c2ccccc2c(=O)c2ccccc21`, for which the GI50 was > 100 µM (inactive) in the test on 786-0; > 100 µM (inactive) with A498; > 100 µM (inactive) in the test with ACHN; > 100 µM (inactive) in the test with CAKI-1; > 100 µM (inactive) in the test on HCT-116; more than 100 µM with HCT-15. The GI50 in the test with HOP-62, with IGROV-1, in the test with K562, in the test with KM-20L2, in the test on KM12 and with NCI-H460 was > 100 µM (inactive) throughout. Also, the GI50 in the test with OVCAR-5, in the test with RPMI-8226, in the test on SN12C and in the test with SNB-78 was > 100 µM (inactive) each time.
Regarding `CC(=O)Nc1ccc(C(=O)NN2C(=O)C(Cl)C2c2ccc([N+](=O)[O-])cc2)cc1` (stereo unspecified), the GI50 in the test on 786-0 is > 100 µM (inactive); in the test on A498 it was > 100 µM (inactive); with ACHN, > 100 µM (inactive); with CAKI-1, > 100 µM (inactive); with HCT-116, > 100 µM (inactive); in the test with HCT-15, more than 100 µM. For the same molecule, the GI50 with HOP-62, with IGROV-1, with K562, in the test on KM-20L2, in the test on NCI-H460 and with OVCAR-5 was > 100 µM (inactive) in each case. Besides, the GI50 in the test on SK-MEL-5, in the test on SN12C, in the test on SNB-78 and in the test on TK-10 was > 100 µM (inactive) throughout.
`NC(CCC(=O)NC(CSC(=O)N(O)c1ccccc1)C(=O)NCC(=O)O)C(=O)O` (stereo unspecified): the GI50 with 786-0 is > 1000 µM (inactive); in the test with A498 it was > 1000 µM (inactive); in the test on ACHN it was > 1000 µM (inactive); with CAKI-1, > 1000 µM (inactive); with HCT-116, > 1000 µM (inactive); in the test with HCT-15, more than 1000 µM. The GI50 in the test with HOP-62, in the test with IGROV-1, with K562, in the test on KM-20L2, with KM12 and in the test with NCI-H460 was > 1000 µM (inactive) throughout. Also, the GI50 in the test with OVCAR-5, in the test with SK-MEL-5, with SN12C, in the test with SNB-78 and with TK-10 was > 1000 µM (inactive) each time.
In the case of `COc1ccc(/C(Cl)=C(\C=O)c2ccc(Br)cc2)cc1OC`, the GI50 is 27.7 µM (inactive) in the test on 786-0; 88.9 µM (inactive) in the test with A498; > 72.6 µM (inactive) in the test with ACHN; > 100 µM (inactive) in the test on CAKI-1; 25.1 µM in the test on HCT-15; 34.8 µM (inactive) with HOP-62. Further, the GI50 is > 100 µM (inactive) with IGROV-1; > 61 µM (inactive) with K562; > 100 µM (inactive) in the test on KM-20L2; > 100 µM (inactive) in the test on KM12; > 68.9 µM (inactive) in the test with NCI-H460; > 100 µM (inactive) in the test on OVCAR-5. In addition, the GI50 in the test on RPMI-8226 is 3.69 µM (inactive); in the test on SK-MEL-5, > 100 µM (inactive); in the test on SN12C, > 100 µM (inactive); in the test with SNB-78, 25.4 µM (inactive); in the test on TK-10 it was > 92.3 µM (inactive).
As to `CCOC(=O)NC(=O)c1cn(CCN2CCNCC2)c(=O)[nH]c1=O`, the GI50 was > 100 µM (inactive) in the test on 786-0; > 100 µM (inactive) in the test with ACHN; > 100 µM (inactive) with CAKI-1; > 100 µM (inactive) with HCT-116; more than 100 µM with HCT-15; > 100 µM (inactive) in the test on HOP-62. Moreover, the GI50 in the test on IGROV-1, in the test with K562, with KM12, with NCI-H460, in the test on OVCAR-5 and with RPMI-8226 was > 100 µM (inactive) throughout. The GI50 in the test with SK-MEL-5, in the test on SN12C, in the test on SNB-78 and with TK-10 was > 100 µM (inactive) each time.
Consider `O=S1(=O)CS(=O)(=O)OCCCCCO1`, for which the GI50 in the test with 786-0 was > 100 µM (inactive); in the test with A498, > 100 µM (inactive); in the test on ACHN, > 100 µM (inactive); in the test on CAKI-1, > 100 µM (inactive); with HCT-116, > 100 µM (inactive); in the test on HCT-15, more than 100 µM. The GI50 in the test on IGROV-1, in the test on K562, in the test with KM-20L2, in the test on KM12, in the test with NCI-H460 and with OVCAR-5 was > 100 µM (inactive) throughout. For the same molecule, the GI50 in the test on RPMI-8226, in the test on SN12C, in the test with SNB-78 and with TK-10 was > 100 µM (inactive) in each case.
Turning to `Cc1cn(C2CC(CCCO)C(CO)O2)c(=O)[nH]c1=O` (stereo unspecified), the GI50 was > 100 µM (inactive) with 786-0; > 100 µM (inactive) with A498; > 100 µM (inactive) in the test with ACHN; > 100 µM (inactive) with CAKI-1; > 100 µM (inactive) with HCT-116; more than 100 µM in the test on HCT-15. In addition, the GI50 in the test with HOP-62, with IGROV-1, in the test on K562, in the test with KM-20L2, in the test on KM12 and in the test with NCI-H460 was > 100 µM (inactive) throughout. The GI50 with OVCAR-5, in the test on RPMI-8226, with SK-MEL-5, in the test on SN12C and with TK-10 was > 100 µM (inactive) in each case.
As for `CC(C)(C)C#COC(=O)c1ccccc1`, the GI50 in the test on 786-0 was > 100 µM (inactive); with A498, > 100 µM (inactive); in the test with ACHN it was > 100 µM (inactive); in the test with CAKI-1 it was > 100 µM (inactive); with HCT-116, > 100 µM (inactive); in the test on HCT-15, more than 100 µM. Besides, the GI50 in the test on HOP-62, in the test on IGROV-1, with K562, in the test with KM-20L2, with KM12 and in the test on NCI-H460 was > 100 µM (inactive) in each case. In addition, the GI50 with OVCAR-5, in the test with RPMI-8226, with SK-MEL-5, with SN12C and in the test on SNB-78 was > 100 µM (inactive) each time.
Turning to `FC(F)(F)c1ccc2nc(NCc3ccccc3)c(-c3ccccc3)nc2c1`, the GI50 is 20.3 µM (inactive) in the test on 786-0; 33.2 µM (inactive) in the test on ACHN; 29 µM (inactive) in the test with HCT-116; 25.6 µM in the test with HCT-15; 52.1 µM (inactive) in the test on HOP-62; 29.5 µM (inactive) in the test with KM-20L2. Further, the GI50 with NCI-H460 is 41 µM (inactive); in the test on OVCAR-5 it was 90.2 µM (inactive); in the test with RPMI-8226 it was 36.4 µM (inactive); with SN12C, 36.6 µM (inactive); in the test with SNB-78, 38.9 µM (inactive); in the test with TK-10 it was 29.6 µM (inactive).
In the case of `CCOC(=O)[C@H]1Nc2ccc(Cl)cc2[C@H]2CCC[C@@H]12`, the GI50 is > 100 µM (inactive) with 786-0; > 100 µM (inactive) in the test on ACHN; 86.9 µM (inactive) in the test with CAKI-1; > 100 µM (inactive) with HCT-116; more than 100 µM with HCT-15; > 100 µM (inactive) with HOP-62. Moreover, the GI50 in the test with IGROV-1 was > 100 µM (inactive); in the test with K562, > 100 µM (inactive); with KM-20L2 it was > 100 µM (inactive); with KM12, > 100 µM (inactive); in the test with NCI-H460, > 100 µM (inactive); in the test with OVCAR-5 it was 63.5 µM (inactive). Besides, the GI50 was > 100 µM (inactive) in the test with RPMI-8226; 71.6 µM (inactive) in the test with SK-MEL-5; > 100 µM (inactive) in the test on SN12C; > 100 µM (inactive) in the test on SNB-78; > 100 µM (inactive) in the test with TK-10.
Turning to `c1ccc2nc(-c3ccc4c(c3)OCO4)ccc2c1`, the GI50 with 786-0 was 76.7 µM (inactive); in the test on ACHN, 26.5 µM (inactive); in the test on CAKI-1 it was 28.8 µM (inactive); with HOP-62 it was 22 µM (inactive); in the test with KM-20L2, 39.6 µM (inactive); with KM12, 24.7 µM (inactive). Also, the GI50 was 34.5 µM (inactive) in the test with NCI-H460; 48.5 µM (inactive) with OVCAR-5; 43.2 µM (inactive) with SN12C; 77.6 µM (inactive) with SNB-78; 64 µM (inactive) with TK-10.
